Experimental data taken from publication PMC11484942, “Rumicidins are a family of mammalian host-defense peptides plugging the 70S ribosome exit tunnel” (Nature Communications, 2024).

What was measured:
Test in all cases: Cytokine response, multiplex xMAP
Type in all cases: cell-based, human
Settings in all cases: 2 µM peptide, 24 h
[1] = system: macrophages MΦ1 (THP-1 derived)
Protocol: (§1) The acute monocytic leukemia THP-1 cell line (ATCC TIB-202) was cultured in the complete RPMI 1640 medium (Invitrogen) containing 10% FBS, 1× antibiotic-antimycotic solution (Invitrogen), and 0.05 mM β-mercaptoethanol, in the CO2-incubator (5% CO2, 37 °C). THP-1 cells were differentiated into proinflammatory macrophages (MΦ1) according to the previously reported protocol. Primary peripheral blood mononuclear cells (PBMC) collected from a healthy donor were purchased from ATCC (PCS-800-011), thawed, and seeded into a 96-well plate one day prior to the experiment at a density of 2 × 10^5 cells/well. Two different cell subpopulations (monocytes and T-/B-/NK-lymphocytes) were isolated from PBMC based on their adherence ability. Macrophages MΦ1 were washed out and seeded into 96-well plates at a density of 10^5 cells/well one day prior to the experiment. The next day, medium in each well was replaced by a fresh complete RPMI 1640 medium with or without 2 μM of a tested peptide (rumicidin-1 or LL-37). Cell cultures were kept in a CO2-incubator (5% CO2, 37 °C) for 24 h. Culture supernatants were collected 24 h later and stored at −70 °C degrees less than one week prior to the assessment of analytes. 26 analytes were measured at a protein level by multiplex xMAP technology using the MILLIPLEX MAP Human Cytokine/Chemokine Magnetic Bead Immunology Panel kit (HCYTOMAG-60K-27, Merck): eotaxin-1/CCL11, TGFα, GM-CSF, IFNα2, IFNγ, IL-10, IL-12p40, IL-12p70, IL-15, sCD40L, IL-17A, IL-1RA, IL-1α, IL-9, IL-1β, IL-2, IL-3, IL-4, IL-5, IL-6, IL-7, IL-8/CXCL8, IP-10/CXCL10, RANTES/CCL5, TNFα, TNFβ. Multiplex-based assay read-out was performed using the MAGPIX system (Merck) with the xPONENT 4.2 software (Merck) in accordance with the manufacturer’s instruction with overnight incubation of the samples with primary antibodies. The final analysis was carried out with the MILLIPLEX Analyst v5.1 software (Merck). Measurements were performed twice for each sample. The release of the analytes in control and experimental samples were compared by unpaired two-sample t-test using GraphPad Prism v.8.0.1. The p values ≤ 0.05 were considered significant.

T-/B-/NK-lymphocytes = system: T-/B-/NK-lymphocytes
Protocol: as §1

Monocytes = system: Monocytes
Protocol: as §1

SMILES: CC[C@H](C)[C@H](NC(=O)[C@H](CCCCN)NC(=O)[C@H](CCC(=O)O)NC(=O)[C@H](CCCCN)NC(=O)[C@H](CO)NC(=O)[C@H](CCCCN)NC(=O)[C@H](CCCNC(=N)N)NC(=O)[C@H](Cc1ccccc1)NC(=O)[C@H](Cc1ccccc1)NC(=O)[C@H](CC(=O)O)NC(=O)CNC(=O)[C@H](CC(C)C)NC(=O)[C@@H](N)CC(C)C)C(=O)NCC(=O)N[C@@H](CCCCN)C(=O)N[C@@H](CCC(=O)O)C(=O)N[C@@H](Cc1ccccc1)C(=O)N[C@@H](CCCCN)C(=O)N[C@@H](CCCNC(=N)N)C(=O)N[C@H](C(=O)N[C@H](C(=O)N[C@@H](CCC(N)=O)C(=O)N[C@@H](CCCNC(=N)N)C(=O)N[C@H](C(=O)N[C@@H](CCCCN)C(=O)N[C@@H](CC(=O)O)C(=O)N[C@@H](Cc1ccccc1)C(=O)N[C@@H](CC(C)C)C(=O)N[C@@H](CCCNC(=N)N)C(=O)N[C@@H](CC(N)=O)C(=O)N[C@@H](CC(C)C)C(=O)N[C@H](C(=O)N1CCC[C@H]1C(=O)N[C@@H](CCCNC(=N)N)C(=O)N[C@H](C(=O)N[C@@H](CCC(=O)O)C(=O)N[C@@H](CO)C(=O)O)[C@@H](C)O)C(C)C)[C@@H](C)CC)C(C)C)[C@@H](C)CC [LL-37]
- GM-CSF [1]: 1,32 pg/ml
- IFNa2 [1]: 4,35 pg/ml
- IFNg [1]: < 1.31 pg/mL
- IL-1RA [1]: 20,52 pg/ml
- IL-1a [1]: < 1.13 pg/mL
- IL-1b [1]: 10,63 pg/ml
- IL-2 [1]: < 2.73 pg/mL
- IL-3 [1]: < 3.02 pg/mL
- IL-4 [1]: 38,61 pg/ml
- IL-5 [1]: < 2.74 pg/mL
- IL-6 [1]: < 2.42 pg/mL
- IL-7 [1]: < 2.06 pg/mL
- IL-8 [1]: 1188 pg/mL
- IL-9 [1]: < 3.08 pg/mL
- IL-10 [1]: 6,13 pg/ml
- IL-12p40 [1]: < 3.69 pg/mL
- IL-12p70 [1]: 0,58 pg/ml
- IL-15 [1]: 2,42 pg/ml
- IL-17A [1]: < 0.94 pg/mL
- IP-10 [1]: 282,01 pg/ml
- RANTES [1]: 715,62 pg/ml
- TGF-a [1]: < 2.64 pg/mL
- TNFa [1]: 9,49 pg/ml
- TNFb [1]: < 2.85 pg/mL
- sCD40L [1]: 3,22 pg/ml
- GM-CSF (T-/B-/NK-lymphocytes): 0,66 pg/ml
- IFNa2 (T-/B-/NK-lymphocytes): 7,02 pg/ml
- IFNg (T-/B-/NK-lymphocytes): 1,93 pg/ml
- IL-1RA (T-/B-/NK-lymphocytes): 6,49 pg/ml
- IL-1a (T-/B-/NK-lymphocytes): < 1.13 pg/mL
- IL-1b (T-/B-/NK-lymphocytes): < 2.88 pg/mL
- IL-2 (T-/B-/NK-lymphocytes): < 2.73 pg/mL
- IL-3 (T-/B-/NK-lymphocytes): < 3.02 pg/mL
- IL-4 (T-/B-/NK-lymphocytes): 51,58 pg/ml
- IL-5 (T-/B-/NK-lymphocytes): < 2.74 pg/mL
- IL-6 (T-/B-/NK-lymphocytes): < 2.42 pg/mL
- IL-7 (T-/B-/NK-lymphocytes): < 2.06 pg/mL
- IL-8 (T-/B-/NK-lymphocytes): 411,17 pg/ml
- IL-9 (T-/B-/NK-lymphocytes): < 3.08 pg/mL
- IL-10 (T-/B-/NK-lymphocytes): < 1.47 pg/mL
- IL-12p40 (T-/B-/NK-lymphocytes): < 3.69 pg/mL
- IL-12p70 (T-/B-/NK-lymphocytes): 1,03 pg/ml
- IL-15 (T-/B-/NK-lymphocytes): < 2.08 pg/mL
- IL-17A (T-/B-/NK-lymphocytes): < 0.94 pg/mL
- IP-10 (T-/B-/NK-lymphocytes): 120,56 pg/ml
- RANTES (T-/B-/NK-lymphocytes): 889,61 pg/ml
- TGF-a (T-/B-/NK-lymphocytes): < 2.64 pg/mL
- TNFa (T-/B-/NK-lymphocytes): 5,23 pg/ml
- TNFb (T-/B-/NK-lymphocytes): < 2.85 pg/mL
- sCD40L (T-/B-/NK-lymphocytes): 3,22 pg/ml
- GM-CSF (Monocytes): 3,08 pg/ml
- IFNa2 (Monocytes): 34,74 pg/ml
- IFNg (Monocytes): 38,2 pg/ml
- IL-1RA (Monocytes): 168,96 pg/ml
- IL-1a (Monocytes): < 1.13 pg/mL
- IL-1b (Monocytes): < 2.88 pg/mL
- IL-2 (Monocytes): < 2.73 pg/mL
- IL-3 (Monocytes): 3,38 pg/ml
- IL-5 (Monocytes): < 2.74 pg/mL
- IL-6 (Monocytes): < 2.42 pg/mL
- IL-7 (Monocytes): 8,54 pg/ml
- IL-8 (Monocytes): 755,68 pg/ml
- IL-9 (Monocytes): < 3.08 pg/mL
- IL-10 (Monocytes): 4,1 pg/ml
- IL-12p40 (Monocytes): 17,59 pg/ml
- IL-12p70 (Monocytes): 5,7 pg/ml
- IL-15 (Monocytes): 4,8 pg/ml
- IP-10 (Monocytes): 897,33 pg/ml
- RANTES (Monocytes): 312,51 pg/ml
- TGF-a (Monocytes): < 2.64 pg/mL
- TNFa (Monocytes): 6,47 pg/ml
- TNFb (Monocytes): < 2.85 pg/mL
- sCD40L (Monocytes): 20,8 pg/ml
